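Test compounds were applied to cells in 96-well plates for 48 hours at 5 doses. At the GI50, growth is halved.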 Active and inactive are the calls of the source. Cut-off read from the data, not from the text of the source: active = GI50 up to about 1.1 µM and inactive = higher.
Columns and labels:
Assay in all cases: inhibition of tumour cell growth, NCI panel, 48 h
[1] = test system: ACHN
[2] = test system: HOP-62
[3] = test system: SK-OV-3
[4] = test system: SR
[5] = test system: UO-31
[6] = test system: NCI-H522
[7] = test system: LOX IMVI
[8] = test system: UACC-62
[9] = test system: UACC-257
[10] = test system: M14
[11] = test system: MDA-MB-231
[12] = test system: NCI/ADR-RES
[13] = test system: SK-MEL-2
[14] = test system: 786-0
[15] = test system: HL-60
[16] = test system: COLO 205
[17] = test system: DU-145
[18] = test system: CCRF-CEM
[19] = test system: TK-10
[20] = test system: U-251

Row | SMILES | GI50 [1] | GI50 [2] | GI50 [3] | GI50 [4] | GI50 [5] | GI50 [6] | GI50 [7] | GI50 [8] | GI50 [9] | GI50 [10] | GI50 [11] | GI50 [12] | GI50 [13] | GI50 [14] | GI50 [15] | GI50 [16] | GI50 [17] | GI50 [18] | GI50 [19] | GI50 [20]
1 | COc1cc(C2c3cc4c(cc3[C@H](OCCN(C)C)[C@@H]3COC(=O)C23)OCO4)cc(OC)c1O (stereo partly drawn) | 0.0293 µM (active) | 0.053 µM (active) | 0.0912 µM (active) | 0.218 µM (active) | 0.417 µM (active) | 0.357 µM (active) | 0.0931 µM (active) | 0.0762 µM (active) | 1.37 µM (inactive) | 0.244 µM (active) | 2.62 µM (inactive) | 2.67 µM (inactive) | 0.706 µM (active) | 0.0614 µM (active) | < 0.01 µM (active) | 1.73 µM (inactive) | 0.134 µM (active) | 0.0791 µM (active) | 2.51 µM (inactive) | 0.0468 µM (active)
2 | S=c1cc(-c2ccc3c(c2)OCO3)s[nH]1 | > 100 µM (inactive) | > 100 µM (inactive) | > 100 µM (inactive) | > 100 µM (inactive) | > 100 µM (inactive) | 5.81 µM (inactive) | > 100 µM (inactive) | 83.2 µM (inactive) | > 100 µM (inactive) | > 100 µM (inactive) | > 100 µM (inactive) | > 100 µM (inactive) | > 100 µM (inactive) | > 100 µM (inactive) | > 100 µM (inactive) | > 100 µM (inactive) | > 100 µM (inactive) | > 100 µM (inactive) | > 100 µM (inactive) | > 100 µM (inactive)
3 | OCc1ccc2c(c1)CC1(C2)Cc2cc3c(cc2C1)CCC3 | 5.31 µM (inactive) | 4.7 µM (inactive) | 11.4 µM (inactive) | 1.14 µM (inactive) | 4.97 µM (inactive) | 3.52 µM (inactive) | 3.66 µM (inactive) | 6.53 µM (inactive) | 7.48 µM (inactive) | 3.27 µM (inactive) | 1.34 µM (inactive) | 2.9 µM (inactive) | 3.75 µM (inactive) | 5.51 µM (inactive) | 1.11 µM (active) | 2.51 µM (inactive) | 5.89 µM (inactive) | 2.74 µM (inactive) | 13 µM (inactive) | 2.99 µM (inactive)
4 | C[N+](C)=C/C=C(\Cl)c1ccc2ccccc2c1 | 14 µM (inactive) | 17.8 µM (inactive) | 18 µM (inactive) | 1.39 µM (inactive) | 17 µM (inactive) | 21.4 µM (inactive) | 4.33 µM (inactive) | 15.1 µM (inactive) | 12.2 µM (inactive) | 6.62 µM (inactive) | 14.6 µM (inactive) | 6.87 µM (inactive) | 25.2 µM (inactive) | 13.1 µM (inactive) | 6.52 µM (inactive) | 19.2 µM (inactive) | 14.9 µM (inactive) | 1.66 µM (inactive) | 16.3 µM (inactive) | 11.4 µM (inactive)
5 | Cc1cc(O)c(C=O)c2c1C(=O)Oc1c(CO)c(O)c3c(c1O2)C(O)OC3=O (stereo not drawn) [SLAZINIC ACID] | 40.1 µM (inactive) | > 100 µM (inactive) | 64 µM (inactive) | 22.6 µM (inactive) | 34.5 µM (inactive) | 42.3 µM (inactive) | 82.2 µM (inactive) | 59 µM (inactive) | > 100 µM (inactive) | 61.4 µM (inactive) | > 100 µM (inactive) | 44.7 µM (inactive) | 97.1 µM (inactive) | > 100 µM (inactive) | 30.1 µM (inactive) | > 100 µM (inactive) | > 100 µM (inactive) | 43 µM (inactive) | > 100 µM (inactive) | 60.5 µM (inactive)
6 | C1C2CC3CC1CC(c1nn4c(C56CC7CC(CC(C7)C5)C6)nnc4s1)(C2)C3 | > 100 µM (inactive) | > 100 µM (inactive) | > 100 µM (inactive) | > 100 µM (inactive) | > 100 µM (inactive) | > 100 µM (inactive) | > 100 µM (inactive) | > 100 µM (inactive) |  | > 100 µM (inactive) | > 100 µM (inactive) | > 100 µM (inactive) | > 100 µM (inactive) | > 100 µM (inactive) | > 100 µM (inactive) | > 100 µM (inactive) | > 100 µM (inactive) | > 100 µM (inactive) | > 100 µM (inactive) | > 100 µM (inactive)
7 | O=C1Oc2ccccc2C(=O)/C1=C\Nc1nc(-c2ccc(O)c(O)c2)cs1 | 2.88 µM (inactive) | 7.18 µM (inactive) | 7.24 µM (inactive) | 1.19 µM (inactive) | 2.79 µM (inactive) | 2.05 µM (inactive) | 3.55 µM (inactive) | 4.83 µM (inactive) | 3.61 µM (inactive) | 3.22 µM (inactive) | 5.7 µM (inactive) | 4.46 µM (inactive) | 2.47 µM (inactive) | 2.54 µM (inactive) | 2.32 µM (inactive) | 2.3 µM (inactive) | 4.94 µM (inactive) | 1.23 µM (inactive) | 3.26 µM (inactive) | 5.01 µM (inactive)
8 | CN[C@@H](Cc1cccc2ccccc12)C(=O)N[C@@H](CC(C)C)B(O)O | < 0.01 µM (active) | < 0.011 µM (active) | 0.166 µM (active) | < 0.01 µM (active) | < 0.01 µM (active) | < 0.01 µM (active) | < 0.01 µM (active) | < 0.01 µM (active) |  | < 0.01 µM (active) | < 0.01 µM (active) | < 0.0224 µM (active) | < 0.01 µM (active) | < 0.01 µM (active) | < 0.01 µM (active) | < 0.01 µM (active) | < 0.0109 µM (active) | 0.00516 µM (active) | < 0.01 µM (active) | < 0.0126 µM (active)
9 | OCCN(C1=NCCN1)/[N+](=C/c1ccccc1O)[CH-]c1ccccc1O | > 100 µM (inactive) | > 100 µM (inactive) | > 100 µM (inactive) | > 100 µM (inactive) | 37 µM (inactive) | > 100 µM (inactive) | > 100 µM (inactive) | > 100 µM (inactive) | > 100 µM (inactive) | > 100 µM (inactive) | > 100 µM (inactive) | 83.6 µM (inactive) | > 100 µM (inactive) | > 100 µM (inactive) | > 100 µM (inactive) | > 100 µM (inactive) | > 100 µM (inactive) | > 100 µM (inactive) | > 100 µM (inactive) | > 100 µM (inactive)
10 | O=c1oc2ccc(Cl)cc2cc1-c1cn2ccsc2n1 | 60.5 µM (inactive) | 46.8 µM (inactive) | 83.6 µM (inactive) | 24.8 µM (inactive) | 34.3 µM (inactive) | 21 µM (inactive) | 43.2 µM (inactive) | 34.3 µM (inactive) | 95.1 µM (inactive) | 57.7 µM (inactive) | 24.6 µM (inactive) | 61.1 µM (inactive) | 50.6 µM (inactive) | 58.5 µM (inactive) | 32.3 µM (inactive) | 36.1 µM (inactive) | 95.7 µM (inactive) | 25.8 µM (inactive) | > 100 µM (inactive) | 51.9 µM (inactive)
